Assay results from BindingDB's records for patent US20250051327 (Exscientia AI, 2025).

Each compound was assayed against T1, Mucosa-associated lymphoid tissue lymphoma translocation protein 1 (Homo sapiens, UniProt Q9UDY8) (assay: MALT-1 Inhibition Assay).
T1 sequence (Q9UDY8 whole entry): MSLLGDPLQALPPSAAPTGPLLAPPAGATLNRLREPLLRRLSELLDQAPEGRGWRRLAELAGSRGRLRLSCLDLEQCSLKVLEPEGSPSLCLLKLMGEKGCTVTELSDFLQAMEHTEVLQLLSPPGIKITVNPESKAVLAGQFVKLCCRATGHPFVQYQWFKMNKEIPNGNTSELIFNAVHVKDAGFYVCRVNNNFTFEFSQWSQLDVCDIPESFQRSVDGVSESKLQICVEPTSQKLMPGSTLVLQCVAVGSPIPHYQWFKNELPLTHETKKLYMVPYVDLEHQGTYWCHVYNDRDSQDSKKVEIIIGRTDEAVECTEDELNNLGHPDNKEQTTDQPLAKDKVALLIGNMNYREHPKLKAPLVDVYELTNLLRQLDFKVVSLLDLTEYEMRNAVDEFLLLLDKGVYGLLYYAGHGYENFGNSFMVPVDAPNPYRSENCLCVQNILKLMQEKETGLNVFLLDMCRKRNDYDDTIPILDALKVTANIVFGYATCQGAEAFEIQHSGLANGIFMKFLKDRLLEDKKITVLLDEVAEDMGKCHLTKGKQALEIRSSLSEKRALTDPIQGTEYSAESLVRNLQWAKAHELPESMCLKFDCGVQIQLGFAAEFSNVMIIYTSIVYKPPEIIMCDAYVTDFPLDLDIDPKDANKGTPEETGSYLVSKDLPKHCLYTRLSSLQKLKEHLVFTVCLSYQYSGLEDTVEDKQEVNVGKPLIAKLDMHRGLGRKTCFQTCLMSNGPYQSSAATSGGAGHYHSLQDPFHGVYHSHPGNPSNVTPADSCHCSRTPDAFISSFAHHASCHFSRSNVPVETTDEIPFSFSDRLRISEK
Experimental: MALT-1 paracaspase activity was measured using the fluorogenic substrate Ac-LRSR-Rh110-DP (purchased from Biosantan GmbH). Proteolytic cleavage of the peptide—rhodamine conjugate results in an increase of rhodamine fluorescence which is inhibited by test compounds. Test compounds were diluted in DMSO in a series of 10 semi-log step doses, 15 nL of each compound dose were dispensed in 384 well polypropylene plates (HiBase non-binding, Greiner Bio-One cat #784900). All other assay components were diluted to appropriate working concentrations in assay buffer composed of: 200 mM Tris-HCl (pH 7.5; Sigma-Aldrich cat #T2663-1L), 0.1 mM EGTA (Sigma-Aldrich cat #E3889-10G), 0.05% CHAPS—Sigma-Aldrich cat #C9426-1G), 1 mM TCEP (Sigma-Aldrich cat #646547-10×1 mL), 0.8 M sodium citrate (Sigma-Aldrich cat #S1804-500G). Recombinant human MALT-1 (amino acids 340-824, accession NP_006776.1) was added to compound doses and equilibrated for 40 minutes at rt. The reaction was initiated by addition of substrate. Final concentrations of MALT-1 and substrate were 3 nM and 10 μM respectively. Reactions were incubated in the dark for 60 minutes at 25° C. Fluorescence was measured in a PHERAstar FSX plate reader (BMG LABTECH) with optical setup for excitation at 485 nm and emission at 520 nm, focal height of 11.8 mm, 20 flashes, gain 300. Percent inhibition values were calculated from relative fluorescence units at different doses and fitted to a 4-parameter logistic curve to determine IC50 values.

| Structure (SMILES) | IC50 |
| --- | --- |
| CN(C(=O)C1CCS(=O)(=O)CC1)[C@@H](c1ccc(N2CC[C@@]3(CCOC3)c3c2cnc2cc(Cl)nn32)cc1)C(F)(F)F [US20250051327, Reference CPD0073762] | 53 nM |
| CN(C(=O)C1CCS(=O)(=O)CC1)[C@@H](c1ccc(N2CC[C@]3(CCOC3)c3c2cnc2cc(Cl)nn32)cc1)C(F)(F)F [US20250051327, Reference CPD0073763] | 57 nM |
| CN(C(=O)[C@@H]1CS(=O)(=O)CC12COC2)[C@@H](c1ccc(N2CCCc3c2cnc2cc(Cl)nn32)cc1)C(F)(F)F [US20250051327, Reference CPD0073974] | 155 nM |
| CN(C(=O)[C@H]1CS(=O)(=O)CC12COC2)[C@@H](c1ccc(N2CCCc3c2cnc2cc(Cl)nn32)cc1)C(F)(F)F [US20250051327, Reference CPD0073975] | 112 nM |
| COc1ccc2ncc(Nc3ccc([C@H](N(C)C(=O)C4CCS(=O)(=O)CC4)C(F)(F)F)cc3)c([C@H]3CCOC3)c2n1 [US20250051327, Reference CPD0074039] | 138 nM |
| COc1ccc2ncc(Nc3ccc([C@H](N(C)C(=O)C4CCS(=O)(=O)CC4)C(F)(F)F)cc3)c([C@@H]3CCOC3)c2n1 [US20250051327, Reference CPD0074040] | 83 nM |
| COc1ccc2ncc(Nc3ccc([C@H](N(C)C(=O)C4CCS(=O)(=O)CC4)C(F)(F)F)cc3)c(C3(OC)COC3)c2n1 [US20250051327, Reference CPD0076414] | 124 nM |
| CO[C@@H](C)c1c(Nc2ccc([C@H](N(C)C(=O)[C@@H]3CCC(=O)N3)C(F)(F)F)cc2)cnn2cc(Cl)nc12 [US20250051327, Reference CPD0082470] | 45 nM |
| COc1ccc2ncc(Nc3ccc([C@H](N(C)C(=O)[C@@H]4CNC(=O)C4)C(F)(F)F)cc3)c([C@@H]3CCOC3)c2n1 [US20250051327, Reference CPD0084142] | 41 nM |
| CO[C@@H](C)c1c(Nc2ccc([C@H](N(C)C(=O)CN3CCN(C)CC3)C(F)(F)F)cc2)cnn2cc(Cl)nc12 [US20250051327, Reference CPD0084933] | 137 nM |
| CO[C@@H](C)c1c(Nc2ccc([C@H](N(C)C(=O)C3CN(S(C)(=O)=O)C3)C(F)(F)F)cc2)cnn2cc(Cl)nc12 [US20250051327, Reference CPD0084936] | 65 nM |
